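Protocol summary: plate cells (96-well), add compound at 5 concentrations, incubate 48 h, interpolate endpoints linearly. GI50: concentration for 50% inhibition of growth. TGI: total growth inhibition.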
What was measured:
Assay in all cases: growth of human tumour cells (NCI), 48 h
A498 renal = tested on: A498 renal
NCI/ADR-RES ovarian = tested on: NCI/ADR-RES ovarian
HT29 colon = tested on: HT29 colon
SF-295 CNS = tested on: SF-295 CNS
KM12 colon = tested on: KM12 colon
BT-549 breast = tested on: BT-549 breast
HCC-2998 colon = tested on: HCC-2998 colon
DU-145 prostate = tested on: DU-145 prostate
HS 578T breast = tested on: HS 578T breast
NCI-H226 lung = tested on: NCI-H226 lung
HOP-62 NSCLC = tested on: HOP-62 NSCLC
MCF7 breast = tested on: MCF7 breast
NCI-H522 lung = tested on: NCI-H522 lung
SN12C renal = tested on: SN12C renal
HL-60(TB) leukemia = tested on: HL-60(TB) leukemia
NCI-H460 lung = tested on: NCI-H460 lung
786-0 renal = tested on: 786-0 renal
ACHN renal = tested on: ACHN renal
SW-620 colon = tested on: SW-620 colon
RXF 393 renal = tested on: RXF 393 renal
IGROV1 ovarian = tested on: IGROV1 ovarian
UACC-62 melanoma = tested on: UACC-62 melanoma
TK-10 renal = tested on: TK-10 renal
A549 NSCLC = tested on: A549 NSCLC
MDA-MB-435 = tested on: MDA-MB-435
K-562 leukemia = tested on: K-562 leukemia
SF-268 CNS = tested on: SF-268 CNS
UACC-257 melanoma = tested on: UACC-257 melanoma
MDA-N = tested on: MDA-N
CCRF-CEM leukemia = tested on: CCRF-CEM leukemia
RPMI-8226 leukemia = tested on: RPMI-8226 leukemia
COLO 205 colon = tested on: COLO 205 colon
MALME-3M melanoma = tested on: MALME-3M melanoma
SNB-19 CNS = tested on: SNB-19 CNS
HOP-92 NSCLC = tested on: HOP-92 NSCLC
PC-3 prostate = tested on: PC-3 prostate
UO-31 renal = tested on: UO-31 renal
OVCAR-8 ovarian = tested on: OVCAR-8 ovarian
MDA-MB-231 breast = tested on: MDA-MB-231 breast
SK-OV-3 ovarian = tested on: SK-OV-3 ovarian
NCI-H23 lung = tested on: NCI-H23 lung
EKVX NSCLC = tested on: EKVX NSCLC
SF-539 CNS = tested on: SF-539 CNS
SNB-75 CNS = tested on: SNB-75 CNS
LOX IMVI melanoma = tested on: LOX IMVI melanoma
SK-MEL-2 melanoma = tested on: SK-MEL-2 melanoma
T-47D breast = tested on: T-47D breast
HCT-116 colon = tested on: HCT-116 colon
MOLT-4 leukemia = tested on: MOLT-4 leukemia
SK-MEL-28 melanoma = tested on: SK-MEL-28 melanoma
M14 melanoma = tested on: M14 melanoma
OVCAR-4 ovarian = tested on: OVCAR-4 ovarian
U251 CNS = tested on: U251 CNS
OVCAR-3 ovarian = tested on: OVCAR-3 ovarian
OVCAR-5 ovarian = tested on: OVCAR-5 ovarian
CAKI-1 renal = tested on: CAKI-1 renal
HCT-15 colon = tested on: HCT-15 colon

COc1cc(C(=O)N2CCN(C=O)C2=S)cc(OC)c1OC
GI50 (A498 renal): 20.5 µM
TGI (A498 renal): 37.6 µM
GI50 (NCI/ADR-RES ovarian): 36.1 µM
TGI (NCI/ADR-RES ovarian): > 100 µM
GI50 (HT29 colon): 26.7 µM
TGI (HT29 colon): 66.4 µM
GI50 (SF-295 CNS): 29.3 µM
TGI (SF-295 CNS): > 100 µM
GI50 (KM12 colon): 14.4 µM
TGI (KM12 colon): 29.5 µM
GI50 (BT-549 breast): 25 µM
TGI (BT-549 breast): 62.4 µM
GI50 (HCC-2998 colon): 19.8 µM
TGI (HCC-2998 colon): 38.7 µM
GI50 (DU-145 prostate): 19.6 µM
TGI (DU-145 prostate): 56.6 µM
GI50 (HS 578T breast): 27.6 µM
TGI (HS 578T breast): > 100 µM
GI50 (NCI-H226 lung): 35.9 µM
TGI (NCI-H226 lung): 84.6 µM
GI50 (HOP-62 NSCLC): 20 µM
TGI (HOP-62 NSCLC): 61.1 µM
GI50 (MCF7 breast): 5.49 µM
TGI (MCF7 breast): 24.6 µM
GI50 (NCI-H522 lung): 5.8 µM
TGI (NCI-H522 lung): 20.8 µM
GI50 (SN12C renal): 20.2 µM
TGI (SN12C renal): 40.2 µM
GI50 (HL-60(TB) leukemia): 23.4 µM
TGI (HL-60(TB) leukemia): 44.3 µM
GI50 (NCI-H460 lung): 34 µM
TGI (NCI-H460 lung): > 100 µM
GI50 (786-0 renal): 12.7 µM
TGI (786-0 renal): 28 µM
GI50 (ACHN renal): 20.1 µM
TGI (ACHN renal): 44.1 µM
GI50 (SW-620 colon): 26.8 µM
TGI (SW-620 colon): 70 µM
GI50 (RXF 393 renal): 16.1 µM
TGI (RXF 393 renal): 32.4 µM
GI50 (IGROV1 ovarian): 21.9 µM
TGI (IGROV1 ovarian): 57.3 µM
GI50 (UACC-62 melanoma): 15.8 µM
TGI (UACC-62 melanoma): 30.4 µM
GI50 (TK-10 renal): 17.1 µM
TGI (TK-10 renal): 36.7 µM
GI50 (A549 NSCLC): 33.2 µM
TGI (A549 NSCLC): 88.8 µM
GI50 (MDA-MB-435): 15.5 µM
TGI (MDA-MB-435): 30.8 µM
GI50 (K-562 leukemia): 30.8 µM
TGI (K-562 leukemia): > 100 µM
GI50 (SF-268 CNS): 21.4 µM
TGI (SF-268 CNS): 43.7 µM
GI50 (UACC-257 melanoma): 19.9 µM
TGI (UACC-257 melanoma): 45.4 µM
GI50 (MDA-N): 17.9 µM
TGI (MDA-N): 34.5 µM
GI50 (CCRF-CEM leukemia): 18.3 µM
TGI (CCRF-CEM leukemia): 49 µM
TGI (RPMI-8226 leukemia): 42.3 µM
GI50 (COLO 205 colon): 20.2 µM
TGI (COLO 205 colon): 39.4 µM
GI50 (MALME-3M melanoma): 24.3 µM
TGI (MALME-3M melanoma): 43.3 µM
GI50 (SNB-19 CNS): 28.5 µM
TGI (SNB-19 CNS): 70.4 µM
GI50 (HOP-92 NSCLC): 9.26 µM
TGI (HOP-92 NSCLC): 26.2 µM
GI50 (PC-3 prostate): 22.2 µM
TGI (PC-3 prostate): 58.2 µM
TGI (UO-31 renal): 3.36 µM
GI50 (OVCAR-8 ovarian): 24 µM
TGI (OVCAR-8 ovarian): 65.2 µM
GI50 (MDA-MB-231 breast): 21.5 µM
TGI (MDA-MB-231 breast): 57.9 µM
GI50 (SK-OV-3 ovarian): 21.9 µM
TGI (SK-OV-3 ovarian): 72.8 µM
GI50 (NCI-H23 lung): 25.9 µM
TGI (NCI-H23 lung): 62 µM
GI50 (EKVX NSCLC): 31.8 µM
TGI (EKVX NSCLC): 97.6 µM
GI50 (SF-539 CNS): 21.3 µM
TGI (SF-539 CNS): 43.2 µM
GI50 (SNB-75 CNS): 10.9 µM
TGI (SNB-75 CNS): 34.6 µM
GI50 (LOX IMVI melanoma): 16.4 µM
TGI (LOX IMVI melanoma): 33.5 µM
GI50 (SK-MEL-2 melanoma): 19.9 µM
TGI (SK-MEL-2 melanoma): 42 µM
GI50 (T-47D breast): 20.7 µM
TGI (T-47D breast): 90.6 µM
GI50 (HCT-116 colon): 35.6 µM
TGI (HCT-116 colon): > 100 µM
GI50 (MOLT-4 leukemia): 29.4 µM
TGI (MOLT-4 leukemia): 73.8 µM
GI50 (SK-MEL-28 melanoma): 29.5 µM
TGI (SK-MEL-28 melanoma): > 100 µM
GI50 (M14 melanoma): 20.6 µM
TGI (M14 melanoma): 41.6 µM
GI50 (OVCAR-4 ovarian): 24.1 µM
TGI (OVCAR-4 ovarian): 58.9 µM
GI50 (U251 CNS): 16.4 µM
TGI (U251 CNS): 37.8 µM
GI50 (OVCAR-3 ovarian): 16.9 µM
TGI (OVCAR-3 ovarian): 33.6 µM
GI50 (OVCAR-5 ovarian): 48.5 µM
TGI (OVCAR-5 ovarian): > 100 µM
GI50 (CAKI-1 renal): 13.6 µM
TGI (CAKI-1 renal): 26.7 µM
GI50 (HCT-15 colon): 25.6 µM
TGI (HCT-15 colon): 73.6 µM
